Test results published in patent EP3046573B1, “AMYLIN ANALOGUES” (Zealand Pharma A/S, priority 2013, dated 2015).
Like-named read-outs stand apart in the source and are kept apart here. Numbered stars: 1 amine (or outer) side, 2 acyl side, 3 side chain; on linkers, the order of the positions; unused ones are H or OH. Bridge positions count the residues as written; N and C are the ends. Square brackets hold non-standard residues; d marks the D form. Peptide text beside a SMILES is read from it. * marks the point of attachment. C20 diacid = O=C(O)CCCCCCCCCCCCCCCCCCC(=O)*; γGlu = O=C(O)[C@H](CCC(=O)[*:2])N[*:1]; NMeI = CC[C@H](C)[C@H](NC)C(=O)O; Sar = CNCC(=O)O

Key:
[1] = target: T1, human amylin receptor 3 (hAMYR3) consisting of hCTR2 co-expressed with human Receptor Activity Modifying Protein 3 (hRAMP3) (Homo sapiens, UniProt O60896+P30988); assay: hAMYR3 assay: induction of cAMP (AlphaScreen cAMP Assay kit) in COS7 cells expressing hAMYR3; format: cell-based
T1 construct: expressed in transfected cells
T1 sequence (P30988 25-474): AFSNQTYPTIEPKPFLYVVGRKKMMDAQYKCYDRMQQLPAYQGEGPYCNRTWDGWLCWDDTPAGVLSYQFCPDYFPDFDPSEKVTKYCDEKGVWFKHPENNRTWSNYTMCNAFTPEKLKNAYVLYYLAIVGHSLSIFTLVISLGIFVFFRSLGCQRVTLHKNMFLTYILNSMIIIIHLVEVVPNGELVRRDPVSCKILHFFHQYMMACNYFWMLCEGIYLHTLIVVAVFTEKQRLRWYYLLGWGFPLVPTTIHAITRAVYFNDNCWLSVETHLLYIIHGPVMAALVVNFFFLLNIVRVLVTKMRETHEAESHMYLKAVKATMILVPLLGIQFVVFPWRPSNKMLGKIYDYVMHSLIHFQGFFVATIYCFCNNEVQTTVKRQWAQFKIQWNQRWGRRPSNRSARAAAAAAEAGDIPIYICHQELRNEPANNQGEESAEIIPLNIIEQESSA
T1 sequence (O60896 24-148 partner): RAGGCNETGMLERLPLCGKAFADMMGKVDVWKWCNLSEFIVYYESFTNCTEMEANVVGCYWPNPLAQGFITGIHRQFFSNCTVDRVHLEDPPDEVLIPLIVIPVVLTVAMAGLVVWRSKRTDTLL
Method in brief: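 Stable COS7 clone co-expressing hCTR2 and hRAMP3, stimulated 15 min at 37° C with increasing peptide in Tyrode buffer pH 7.4 with 100 µM IBMX and 0.1% casein. cAMP measured by AlphaScreen after lysis; EC50 and % efficacy versus pramlintide from 4PL fit.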

[2] = Solubility assessment (turbidity absorbance at 325 nm); format: physicochemical; conditions: stock 2 mg/ml diluted 1:1, ambient temperature (typically 25°C), n=1; for Solubility, Acetate buffer pH 4: 100 mM acetate buffer pH 4.0; for Solubility, Acetate buffer pH 5: 100 mM acetate buffer pH 5.0; for Solubility, Histidine buffer pH 6: 100 mM histidine buffer pH 6.0; for Solubility, Histidine buffer pH 7: 100 mM histidine buffer pH 7.0; for Solubility, Phosphate buffer pH 6: 100 mM phosphate buffer pH 6.0; for Solubility, Phosphate buffer pH 7: 100 mM phosphate buffer pH 7.0; for Solubility, Phosphate buffer pH 7.5: 100 mM phosphate buffer pH7.5
Method in brief: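 Peptide stock (2 mg/ml) in water acidified to pH 2.5 with HCl was diluted 1:1 into 100 mM acetate (pH 4.0, 5.0), histidine (pH 6.0, 7.0) or phosphate (pH 6.0, 7.0, 7.5) buffer. A280 and A325 were read at about 25°C, n=1. A325 ≤ 0.02 meant solubility ≥ 1 mg/ml.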

[3] = target: T2, human calcitonin receptor (hCTR2) (Homo sapiens, UniProt P30988); assay: hCTR2 assay: induction of cAMP (AlphaScreen cAMP Assay kit) in COS7 cells expressing hCTR2; format: cell-based
T2 construct: expressed in transfected cells
T2 sequence (P30988 25-474): T1 sequence (P30988 25-474)
Method in brief: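 Stable hCTR2 clone in RAMP-naive COS7 cells; peptides titrated in Tyrode buffer (pH 7.4) with 100 µM IBMX, 0.1% casein, 15 min at 37° C. cAMP read by AlphaScreen after lysis; EC50 and efficacy relative to pramlintide from 4PL fit.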

Row | Structure (SMILES) | EC50 [1] [pM] | Solubility, Acetate buffer pH 4 [2] | Solubility, Acetate buffer pH 5 [2] | Solubility, Histidine buffer pH 6 [2] | Solubility, Histidine buffer pH 7 [2] | Solubility, Phosphate buffer pH 6 [2] | Solubility, Phosphate buffer pH 7 [2] | Solubility, Phosphate buffer pH 7.5 [2] | EC50 [3] [pM] | EC50 ([1]; cAMP induction in COS7 cells expressing hAMYR3, average of a minimum of 3 determinations, read-out: hAMY R3 EC50) [pM] | EC50 ([3]; cAMP induction in COS7 cells expressing hCTR2, average of a minimum of 3 determinations, read-out: hCTR2 EC50) [pM]
1 | CC[C@H](C)[C@@H](C(=O)N[C@@H](CC(C)C)C(=O)N[C@@H](CO)C(=O)N[C@@H](CO)C(=O)N[C@H](C(=O)N[C@@H](CC(N)=O)C(=O)N[C@H](C(=O)NCC(=O)N[C@@H](CO)C(=O)N[C@@H](CC(N)=O)C(=O)N[C@H](C(=O)N(C)[C@H](C(N)=O)[C@@H](C)CC)[C@@H](C)O)C(C)C)[C@@H](C)O)N(C)C(=O)[C@H](C)NC(=O)CN(C)C(=O)[C@H](Cc1ccccc1)NC(=O)[C@H](CC(N)=O)NC(=O)[C@H](CC(N)=O)NC(=O)[C@H](CO)NC(=O)[C@H](CO)NC(=O)[C@H](CCCNC(=N)N)NC(=O)[C@H](Cc1c[nH]cn1)NC(=O)[C@H](CC(C)C)NC(=O)[C@H](Cc1ccccc1)NC(=O)[C@H](CCC(=O)O)NC(=O)[C@H](C)NC(=O)[C@H](CC(C)C)NC(=O)[C@H](CCCNC(=N)N)NC(=O)[C@H](CCC(N)=O)NC(=O)[C@@H](NC(=O)[C@H](C)NC(=O)[C@@H]1CSSC[C@H](NC(=O)[C@H](CCCNC(=N)N)NC(=O)CC[C@H](NC(=O)CCCCCCCCCCCCCCCCCCC(=O)O)C(=O)O)C(=O)N[C@@H](CC(N)=O)C(=O)N[C@@H]([C@@H](C)O)C(=O)N[C@@H](C)C(=O)N[C@@H]([C@@H](C)O)C(=O)N1)[C@@H](C)O [Compound 103, [19CD]-isoGlu-RC()NTATC()ATQRLAEFLHRSSNNF-Gly(Me)-A-Ile(Me)-LSSTNVGSNT-Ile(Me)-NH2H2] ({C20 diacid-γGlu}-RCNTATCATQRLAEFLHRSSNNF[Sar]A[NMeI]LSSTNVGSNT[NMeI]-NH2; disulfide 2-7) | 5100 | SS (SS indicates solubility ≥ 1mg/ml) | SS (SS indicates solubility ≥ 1mg/ml) | SS (SS indicates solubility ≥ 1mg/ml) | SS (SS indicates solubility ≥ 1mg/ml) | II (II indicates solubility ≤ 1 mg/ml) | SS (SS indicates solubility ≥ 1mg/ml) | SS (SS indicates solubility ≥ 1mg/ml) | 650 | – | –
2 | CC[C@H](C)[C@@H](C(=O)N[C@@H](CC(C)C)C(=O)N[C@@H](CO)C(=O)N[C@@H](CO)C(=O)N[C@H](C(=O)N[C@@H](CC(=O)O)C(=O)N[C@H](C(=O)NCC(=O)N[C@@H](CO)C(=O)N[C@@H](CC(=O)O)C(=O)N[C@H](C(=O)N1CCC[C@H]1C(N)=O)[C@@H](C)O)C(C)C)[C@@H](C)O)N(C)C(=O)[C@H](C)NC(=O)CN(C)C(=O)[C@H](Cc1ccccc1)NC(=O)[C@H](CO)NC(=O)[C@H](CO)NC(=O)[C@H](CO)NC(=O)[C@H](CO)NC(=O)[C@H](CCCNC(=N)N)NC(=O)[C@H](Cc1c[nH]cn1)NC(=O)[C@H](CC(C)C)NC(=O)[C@H](Cc1ccccc1)NC(=O)[C@H](CCC(=O)O)NC(=O)[C@H](C)NC(=O)[C@H](CC(C)C)NC(=O)[C@H](CCCNC(=N)N)NC(=O)[C@H](CCC(=O)O)NC(=O)[C@@H](NC(=O)[C@H](C)NC(=O)[C@@H]1CSSC[C@H](NC(=O)[C@H](CCCCN)NC(=O)[C@H](CCCCN)NC(=O)CC[C@H](NC(=O)CCCCCCCCCCCCCCCCCCC(=O)O)C(=O)O)C(=O)N[C@@H](CC(N)=O)C(=O)N[C@@H]([C@@H](C)O)C(=O)N[C@@H](C)C(=O)N[C@@H]([C@@H](C)O)C(=O)N1)[C@@H](C)O [Compound 159, [19CD]-isoGlu-KKC()NTATC()ATERLAEFLHRSSSSF-Gly(Me)-A-Ile(Me)-LSSTDVGSDTP-NH2] ({C20 diacid-γGlu}-KKCNTATCATERLAEFLHRSSSSF[Sar]A[NMeI]LSSTDVGSDTP-NH2; disulfide 3-8) | – | SS (SS indicates solubility ≥ 1mg/ml) | SS (SS indicates solubility ≥ 1mg/ml) | SS (SS indicates solubility ≥ 1mg/ml) | SS (SS indicates solubility ≥ 1mg/ml) | SS (SS indicates solubility ≥ 1mg/ml) | SS (SS indicates solubility ≥ 1mg/ml) | SS (SS indicates solubility ≥ 1mg/ml) | – | 140 | 100
